Experimental data reported in US20230108270A1, “STABILIZATION OF COMPOUNDS AS CYCLODEXTRIN COMPLEXES” (University of Pittsburgh - Of the Commonwealth System of …, priority 2020, published 2023).

Assay: Stability of NO2-OA/β-cyclodextrin inclusion complex resuspended in water
Format: physicochemical
Method: An important consideration when working with nitroalkene fatty acids is their high sensitivity to water or humidity. […] Stability was compared with the total amount added to the aqueous solution.
These stability assays were performed at room temperature and data was similar between the two tested concentrations of 0.31 mg/ml and 1.95 mg/ml. […] A new equilibrium is rapidly achieved and the sample is stable after this initial decay.

time to complete decomposition of NO2-OA in water (NO2-OA added to water without cyclodextrin): ≤ 4 h | time to loss of 10-NO2-OA in solution (same molar amount of 10-NO2-OA added to water): ≤ 4 hrs
Compound: CCCCCCCCC(=CCCCCCCCC(=O)O)[N+](=O)[O-] [NO2-OA, 10-nitro-octadec-9-enoic acid]
